{"source": "patent US20240043404A1", "about": "(AbbVie Inc., priority 2009, published 2024)", "data": [{"tested_on": "RS4;11 cells", "test": "RS4;11 cell viability assay (CellTiter Glo);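 note: acute lymphoblastic leukemia line RS4,11, EC50 derived from percentage of viable cells after treatment relative to untreated controls, cell killing taken as a measure of Bcl-2 inhibition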", "format": "cell-based, human", "details": "Homo sapiens, RS4-11, 48 h, 50,000 cells per well, 10% human serum, 48 hours; read-out: RS4; 11 EC50 Values", "units": {"EC50": "nM"}, "method": "The acute lymphoblastic leukemia (ALL) cell line RS4;11 was used as the primary human cell line to assess the cellular activity of Bcl-2 selective agents in vitro and their efficacy in vivo.\nCell cytotoxicity EC50 values were assessed using CellTiter Glo (Promega) according to the manufacturer's recommendations. The EC50 values were determined as a percentage of viable cells following treatment compared to the untreated control cells.", "values": [{"smiles": "CC1(C)CCC(CN2CCN(c3ccc(C(=O)NS(=O)(=O)c4cnc(O[C@H]5CC[C@H](N6CCOCC6)CC5)c(Br)c4)c(Oc4cnc5[nH]ccc5c4)c3)CC2)=C(c2ccc(Cl)cc2)C1", "note": "[Example 124, Trans-N-({5-bromo-6-[(4-morpholin-4-ylcyclohexyl)oxy]pyridin-3-yl}sulfonyl)-4-(4-{[2-(4-chlorophenyl)-4,4-dimethylcyclohex-1-en-1-yl]methyl}piperazin-1-yl)-2-(1H-pyrrolo[2,3-b]pyridin-5-yloxy)benzamide]", "EC50": 212}, {"smiles": "CC1(C)CCC(CN2CCN(c3ccc(C(=O)NS(=O)(=O)c4ccc(N[C@H]5CCCN(C6CCOCC6)C5)c([N+](=O)[O-])c4)c(Oc4cnc5[nH]ccc5c4)c3)CC2)=C(c2ccc(Cl)cc2)C1", "note": "[Example 105, 4-(4-{[2-(4-chlorophenyl)-4,4-dimethylcyclohex-1-en-1-yl]methyl}piperazin-1-yl)-N-[(3-nitro-4-{[(3S)-1-tetrahydro-2H-pyran-4-ylpiperidin-3-yl]amino}phenyl)sulfonyl]-2-(1H-pyrrolo[2,3-b]pyridin-5-yloxy)benzamide]", "EC50": 53.6}, {"smiles": "CC1(C)CCC(CN2CCN(c3ccc(C(=O)NS(=O)(=O)c4ccc(N[C@H]5CCN(C6COC6)C5)c([N+](=O)[O-])c4)c(Oc4cnc5[nH]ccc5c4)c3)CC2)=C(c2ccc(Cl)cc2)C1", "note": "[Example 212, 4-(4-{[2-(4-chlorophenyl)-4,4-dimethylcyclohex-1-en-1-yl]methyl}piperazin-1-yl)-N-[(3-nitro-4-{[(3S)-1-oxetan-3-ylpyrrolidin-3-yl]amino}phenyl)sulfonyl]-2-(1H-pyrrolo[2,3-b]pyridin-5-yloxy)benzamide]", "EC50": 12.8}, {"smiles": "CC1(C)CCC(CN2CCN(c3ccc(C(=O)NS(=O)(=O)c4ccc(N[C@H]5CC[C@H](N(C6CC6)C6CC6)CC5)c([N+](=O)[O-])c4)c(Oc4cnc5[nH]ccc5c4)c3)CC2)=C(c2ccc(Cl)cc2)C1", "note": "[Example 100, Trans-4-(4-{[2-(4-chlorophenyl)-4,4-dimethylcyclohex-1-en-1-yl]methyl}piperazin-1-yl)-N-[(4-{[4-(dicyclopropylamino)cyclohexyl]amino}-3-nitrophenyl)sulfonyl]-2-(1H-pyrrolo[2,3-b]pyridin-5-yloxy)benzamide]", "EC50": 137}, {"smiles": "CC1(C)CCC(CN2CCN(c3ccc(C(=O)NS(=O)(=O)c4ccc(NC5CCC(N(CCC#N)C6CC6)CC5)c([N+](=O)[O-])c4)c(Oc4cnc5[nH]ccc5c4)c3)CC2)=C(c2ccc(Cl)cc2)C1", "note": "(stereo not shown) [Example 340, 4-(4-{[2-(4-chlorophenyl)-4,4-dimethylcyclohex-1-en-1-yl]methyl}piperazin-1-yl)-N-{[4-({4-[(2-cyanoethyl)(cyclopropyl)amino]cyclohexyl}amino)-3-nitrophenyl]sulfonyl}-2-(1H-pyrrolo[2,3-b]pyridin-5-yloxy)benzamide]", "EC50": 56.5}, {"smiles": "CC(C)N1CCC2(CCC(c3ccc(Cl)cc3)=C(CN3CCN(c4ccc(C(=O)NS(=O)(=O)c5cnc(OCC6CCOCC6)c(Cl)c5)c(Oc5cnc6[nH]ccc6c5)c4)CC3)C2)CC1", "note": "[Example 268, 4-(4-{[9-(4-chlorophenyl)-3-isopropyl-3-azaspiro[5.5]undec-8-en-8-yl]methyl}piperazin-1-yl)-N-{[5-chloro-6-(tetrahydro-2H-pyran-4-ylmethoxy)pyridin-3-yl]sulfonyl}-2-(1H-pyrrolo[2,3-b]pyridin-5-yloxy)benzamide]", "EC50": 48.8}, {"smiles": "CN(C)CC(=O)N1CCO[C@H](COc2ncc(S(=O)(=O)NC(=O)c3ccc(N4CCN(CC5=C(c6ccc(Cl)cc6)CC(C)(C)CC5)CC4)cc3Oc3cnc4[nH]ccc4c3)cc2Cl)C1", "note": "[Example 245, N-[(5-chloro-6-{[(2S)-4-(N,N-dimethylglycyl)morpholin-2-yl]methoxy}pyridin-3-yl)sulfonyl]-4-(4-{[2-(4-chlorophenyl)-4,4-dimethylcyclohex-1-en-1-yl]methyl}piperazin-1-yl)-2-(1H-pyrrolo[2,3-b]pyridin-5-yloxy)benzamide]", "EC50": 83.6}, {"smiles": "CC1(C)CCC(CN2CCN(c3ccc(C(=O)NS(=O)(=O)c4ccc(NC[C@@H]5CC[C@H](O)C5)c([N+](=O)[O-])c4)c(Oc4cnc5[nH]ccc5c4)c3)CC2)=C(c2ccc(Cl)cc2)C1", "note": "[Example 159, 4-(4-{[2-(4-chlorophenyl)-4,4-dimethylcyclohex-1-en-1-yl]methyl}piperazin-1-yl)-N-{[4-({[(1R,3S)-3-hydroxycyclopentyl]methyl}amino)-3-nitrophenyl]sulfonyl}-2-(1H-pyrrolo[2,3-b]pyridin-5-yloxy)benzamide]", "EC50": 11.8}, {"smiles": "CC1(C)CCC(CN2CCN(c3ccc(C(=O)NS(=O)(=O)c4ccc(OCC5(F)CCN(C6COC6)CC5)c([N+](=O)[O-])c4)c(Oc4cnc5[nH]ccc5c4)c3)CC2)=C(c2ccc(Cl)cc2)C1", "note": "[Example 167, 4-(4-{[2-(4-chlorophenyl)-4,4-dimethylcyclohex-1-en-1-yl]methyl}piperazin-1-yl)-N-({4-[(4-fluoro-1-oxetan-3-ylpiperidin-4-yl)methoxy]-3-nitrophenyl}sulfonyl)-2-(1H-pyrrolo[2,3-b]pyridin-5-yloxy)benzamide]", "EC50": 0.93}, {"smiles": "CC(=O)N1CCC(Nc2ccc(S(=O)(=O)NC(=O)c3ccc(N4CCN(CC5=C(c6ccc(Cl)cc6)CC(C)(C)CC5)CC4)cc3Oc3cnc4[nH]ccc4c3)cc2[N+](=O)[O-])CC1", "note": "[Example 53, N-({4-[(1-acetylpiperidin-4-yl)amino]-3-nitrophenyl}sulfonyl)-4-(4-{[2-(4-chlorophenyl)-4,4-dimethylcyclohex-1-en-1-yl]methyl}piperazin-1-yl)-2-(1H-pyrrolo[2,3-b]pyridin-5-yloxy)benzamide]", "EC50": 66.7}, {"smiles": "CC1(C)CCC(CN2CCN(c3ccc(C(=O)NS(=O)(=O)c4ccc(NC[C@H]5CCN(C6CCOCC6)C5)c([N+](=O)[O-])c4)c(Oc4cnc5[nH]ccc5c4)c3)CC2)=C(c2ccc(Cl)cc2)C1", "note": "[Example 118, 4-(4-{[2-(4-chlorophenyl)-4,4-dimethylcyclohex-1-en-1-yl]methyl}piperazin-1-yl)-N-{[3-nitro-4-({[(3R)-1-tetrahydro-2H-pyran-4-ylpyrrolidin-3-yl]methyl}amino)phenyl]sulfonyl}-2-(1H-pyrrolo[2,3-b]pyridin-5-yloxy)benzamide]", "EC50": 12.9}, {"smiles": "COCCOc1ncc(S(=O)(=O)NC(=O)c2ccc(N3CCN(CC4=C(c5ccc(Cl)cc5)CC(C)(C)CC4)CC3)cc2Oc2cnc3[nH]ccc3c2)cc1Cl", "note": "[Example 292, N-{[5-chloro-6-(2-methoxyethoxy)pyridin-3-yl]sulfonyl}-4-(4-{[2-(4-chlorophenyl)-4,4-dimethylcyclohex-1-en-1-yl]methyl}piperazin-1-yl)-2-(1H-pyrrolo[2,3-b]pyridin-5-yloxy)benzamide]", "EC50": 889}, {"smiles": "CCN(C)C(=O)N1CCOC(CNc2ccc(S(=O)(=O)NC(=O)c3ccc(N4CCN(CC5=C(c6ccc(Cl)cc6)CC(C)(C)CC5)CC4)cc3Oc3cnc4[nH]ccc4c3)cc2[N+](=O)[O-])C1", "note": "(stereo not shown) [Example 318, 2-{[(4-{[4-(4-{[2-(4-chlorophenyl)-4,4-dimethylcyclohex-1-en-1-yl]methyl}piperazin-1-yl)-2-(1H-pyrrolo[2,3-b]pyridin-5-yloxy)benzoyl]sulfamoyl}-2-nitrophenyl)amino]methyl}-N-ethyl-N-methylmorpholine-4-carboxamide]", "EC50": 11.6}, {"smiles": "COCC(=O)N1CCC(COc2ccc(S(=O)(=O)NC(=O)c3ccc(N4CCN(CC5=C(c6ccc(Cl)cc6)CC(C)(C)CC5)CC4)cc3Oc3cnc4[nH]ccc4c3)cc2Cl)CC1", "note": "[Example 294, N-[(3-chloro-4-{[1-(methoxyacetyl)piperidin-4-yl]methoxy}phenyl)sulfonyl]-4-(4-{[2-(4-chlorophenyl)-4,4-dimethylcyclohex-1-en-1-yl]methyl}piperazin-1-yl)-2-(1H-pyrrolo[2,3-b]pyridin-5-yloxy)benzamide]", "EC50": 125}, {"smiles": "CC1(C)CCC(CN2CCN(c3ccc(C(=O)NS(=O)(=O)c4ccc(Cl)c([N+](=O)[O-])c4)c(Oc4cnc5[nH]ccc5c4)c3)CC2)=C(c2ccc(Cl)cc2)C1", "note": "[Example 82, N-[(4-chloro-3-nitrophenyl)sulfonyl]-4-(4-{[2-(4-chlorophenyl)-4,4-dimethylcyclohex-1-en-1-yl]methyl}piperazin-1-yl)-2-(1H-pyrrolo[2,3-b]pyridin-5-yloxy)benzamide]", "EC50": 684}, {"smiles": "CC1(C)CCC(CN2CCN(c3ccc(C(=O)NS(=O)(=O)c4ccc(NCCCN(C5CCC5)C5CC5)c([N+](=O)[O-])c4)c(Oc4cnc5[nH]ccc5c4)c3)CC2)=C(c2ccc(Cl)cc2)C1", "note": "[Example 320, 4-(4-{[2-(4-chlorophenyl)-4,4-dimethylcyclohex-1-en-1-yl]methyl}piperazin-1-yl)-N-{[4-({3-[cyclobutyl(cyclopropyl)amino]propyl}amino)-3-nitrophenyl]sulfonyl}-2-(1H-pyrrolo[2,3-b]pyridin-5-yloxy)benzamide]", "EC50": 51}, {"smiles": "CC1(C)CCC(CN2CCN(c3ccc(C(=O)NS(=O)(=O)c4ccc(NCC5CN(C6COC6)C5)c([N+](=O)[O-])c4)c(Oc4cnc5[nH]ccc5c4)c3)CC2)=C(c2ccc(Cl)cc2)C1", "note": "[Example 162, 4-(4-{[2-(4-chlorophenyl)-4,4-dimethylcyclohex-1-en-1-yl]methyl}piperazin-1-yl)-N-[(3-nitro-4-{[(1-oxetan-3-ylazetidin-3-yl)methyl]amino}phenyl)sulfonyl]-2-(1H-pyrrolo[2,3-b]pyridin-5-yloxy)benzamide]", "EC50": 13}, {"smiles": "CC1(C)CCC(CN2CCN(c3ccc(C(=O)NS(=O)(=O)c4ccc(NC5CN(C6CCOC6)C5)c([N+](=O)[O-])c4)c(Oc4cnc5[nH]ccc5c4)c3)CC2)=C(c2ccc(Cl)cc2)C1", "note": "(stereo not shown) [Example 117, 4-(4-{[2-(4-chlorophenyl)-4,4-dimethylcyclohex-1-en-1-yl]methyl}piperazin-1-yl)-N-({3-nitro-4-[(1-tetrahydrofuran-3-ylazetidin-3-yl)amino]phenyl}sulfonyl)-2-(1H-pyrrolo[2,3-b]pyridin-5-yloxy)benzamide]", "EC50": 18.2}, {"smiles": "COC1(Cc2ccccc2-c2ccc(Cl)cc2)CCN(c2ccc(C(=O)NS(=O)(=O)c3cnc(OCC4(F)CCOCC4)c(Cl)c3)c(Oc3cnc4[nH]ccc4c3)c2)CC1", "note": "[Example 263, 4-{4-[(4′-chlorobiphenyl-2-yl)methyl]-4-methoxypiperidin-1-yl}-N-({5-chloro-6-[(4-fluorotetrahydro-2H-pyran-4-yl)methoxy]pyridin-3-yl}sulfonyl)-2-(1H-pyrrolo[2,3-b]pyridin-5-yloxy)benzamide]", "EC50": "> 1000"}]}]}
